Experimental data reported in patent publication US12521415B2, “Accelerating repair of mucosal injury using gold(III) compounds” (University of Kentucky Research Foundation, priority 2020, dated 2026).
“Also recorded” adds a separate entry of the source.

Tests used:
[1] = system: TNF-stimulated colonic NCM460 cells; experiment: Western blot of TNF-stimulated NCM460 cells treated with AuPhos (mitochondrial biogenesis, PI3K markers); format: cell-based, human; details: WB
Protocol: (§1) FIG. 14A Normal human colonic biopsies were incubated a^t 4° C. with AuPhos×3 hrs and membrane fractions examined for mitochondrial complexes expression by WB. FIG. 14B TNF-stimulated colonic NCM460 cells were treated overnight with AuPhos at concentrations indicated. WB for markers indicated are shown in nuclear and membranous protein fractions. FIG. 14C Markers of PI3K pathway were probed in nuclear and cytosolic fractions of AuPhos-treated NCM460 cells (treated with TNF). FIG. 14D NCM460 cell were treated overnight with TNF and probed for the ROS-induced P-PTEN, which inactivates PTEN and activates PI3K.
The effects of AuPhos in Px-accelerated IL-10KO mice by beginning treatment on D21 (7D after cessation of Px) when colitis is severe is shown in FIG. 13A. AuPhos-induced mitochondrial biogenesis and PI3K signaling. To examine the effect of AuPhos on mitochondrial biogenesis in human colonic IEC, fresh biopsies were cultured with a dose range of AuPhos and examined (after 3 h) for mitochondrial complex levels. […] Lastly, TNF stimulates p-PTEN in NCM460 cells indicative of ROS-induced PTEN inactivation as published. It is likely that induction of mtROS by AuPhos enhances PI3K signaling which promotes mitochondrial biogenesis (PGC1α and TFAM) as well as cooperate with Wnt to enhance β-catenin signaling in fissioning crypts.

isolated IEC = experiment: Western blot of IEC proteins from control or DSS colitis mice gavaged with AuPhos; format: in vivo, mouse
Protocol: (§2) Control or DSS colitis mice were gavaged with vehicle (−) or AuPhos (+) (as in FIG. 2) and sacrificed on D14. WB of isolated IEC proteins indicated are shown in nuclear and membranous protein fractions along with densitometry. (#mice=4 for each condition). *p<0.04. FIG. 16E. Normal human colonic biopsies were incubated at 4° C. with AuPhos×3 hrs. Membranous and nuclear fractions examined for indicated proteins by WB.
Taking advantage of the unique electrochemical properties and excellent safety profile of gold in humans, a stable gold compound was designed to modulate mitochondrial processes including oxidative phosphorylation (OXPHOS). […] IEC (FIG. 16C). […] These examples illustrate that AuPhos has utility for “gut selective” IBD therapy.

[2] = system: mouse liver mitochondria (complex I); experiment: AuPhos-induced OCR in mouse liver mitochondria; format: biochemical; details: complex I-driven, substrates pyruvate and succinate
Excerpt: (§3) FIGS. 8A-8J present properties of AuPhos. FIG. 8A includes a chemical structure of AuPhos. FIG. 8B includes extrapolated AuPhos-induced OCR (complex I) in liver mitochondria. […] FIG. 8E provides weight change in AuPhos-treated mice over time. FIG. 8F presents stability of AuPhos in PBS and DMEM. FIG. 8G presents stability of AuPhos in PBS and DMEM. FIG. 8H includes an AuPhos-induced Heat map of DEG (left Panel), obtained using log 2(Fold Change) and p-Value <0.00001 thresholds in MDA-MB-231(107) cells (n=2), and the top six hits of KEGG analysis (right panel). FIG. 8I presents biodistribution and pharmacokinetics of AuPhos in different tissues; Colon, Small bowel, Lung, Kidney, Spleen, Liver, Heart and Blood after single dose (oral, 25 mg/kg) administration of AuPhos at 6 h, 12 h and 24 h. FIG. 8J presents biodistribution and pharmacokinetics of AuPhos in different tissues stool after single dose (oral, 25 mg/kg) administration of AuPhos at 6 h, 12 h and 24 h.
OxPHOS will be then be stimulated by subsequent addition of ADP followed by additional CI substrate glutamate (5 mM). […] Residual non-mitochondrial oxygen consumption will be determined by addition of complex III inhibitor antimycin-A (1 ug/ml). Oxygen consumption rate (OCR) of isolated mitochondria will also be evaluated using Oxygraph-2K or high-throughput Seahorse XFe24 Extracellular Flux Analyzer (Agilent Technologies). […]

[3] = system: normal human colonic biopsies; experiment: Western blot of human colonic biopsies incubated with AuPhos; format: cell-based
Protocol: as §1, §2
The effects of AuPhos in Px-accelerated IL-10KO mice by beginning treatment on D21 (7D after cessation of Px) when colitis is severe is shown in FIG. 13A. AuPhos-induced mitochondrial biogenesis and PI3K signaling. […]

[4] = Toxicity (weight change) in AuPhos-treated mice over time; format: in vivo, mouse
Excerpt: as §3
This observation was mitochondrial complex I-driven when different substrates, i.e. pyruvate and succinate, were used to measure the OCR. Transcriptomics was used to study global changes in mRNA in response to a 12 h exposure of AuPhos to MDA-MB-231 cells (FIG. 8H).

## [Cl][Au]1([c]2ccccc2Cc2ccccn2)[P](c2ccccc2)(c2ccccc2)c2ccccc2[P]1(c1ccccc1)c1ccccc1 [AuPhos]
[1]; NCM460 cells treated with TNF
  markers of PI3K [pAkt and pS6 kinase (pS6)]: induced markers of PI3K
[1]; NCM460 cells, TNF-stimulated, overnight AuPhos
  PGC1a and TFAM protein: induces PGC1a and TFAM
[1]; NCM460 cells
  nuclear pp-catenin5: induction of nuclear pp-catenin5
Isolated IEC; WB
  Nrf2 and PGC1α levels in IEC: increased Nrf2 and PGC1α levels
Isolated IEC; control and DSS colitis mice, sacrificed D14, WB
  mitochondrial complex levels in IEC: increases mitochondrial complex levels
[2]
  mitochondrial respiration (OCR): directly and rapidly enhances mitochondrial respiration; also recorded: significant increase in mitochondrial respiration induced by AuPhos in a dose-dependent manner
[3]; fresh human biopsies, dose range of AuPhos, after 3 h, WB
  mitochondrial complex levels: rapid increased in complexes
[3]; human biopsies, 4° C., AuPhos x3 hrs, WB (FIG. 16E)
  mitochondrial complex levels and downstream signaling: increases mitochondrial complex levels and downstream signaling
[4]; mice, data not shown
  liver toxicity: not observed
[4]; over 20 days
  toxicity in mice: no toxicity
